Numbering of substitutions follows the chain as printed.

The values that follow come from patent publication US9926375B2, “Anti-endoglin antibodies and uses thereof” (Tracon Pharmaceuticals, Inc., priority 2014, dated 2018).

Data set [1] concerns NASH mice. The experiment in a line: Murine model of non-alcoholic steatohepatitis (NASH; STZ and high fat diet). The class given is in vivo, mouse. An excerpt: The purpose of this study was to examine the protective effects of endoglin antibodies on a murine model of NASH.
NASH was established by a single subcutaneous injection of STZ (Sigma, USA) after birth and feeding with a high fat diet (HFD; CLEA Japan, Japan) ad libitum after 4 weeks of age (day 28±2).
Randomization of mice into 6 groups of 10 mice was done at 9 weeks of age (day 63±2), the day before the start of treatment.
Group 3 (Positive control; Temlisartan Group): Ten NASH mice were be orally administered pure water supplemented with telmisartan at a dose of 10 mg/kg once daily from day 63 to 84.
Group 4 (Antibody M1043: M1043 Group): Ten NASH mice were intravenously administered vehicle supplemented with Antibody M1043 at a dose of 10 mg/kg twice weekly at day 63, 66, 70, 73, 77 and 80.
Group 5 (Antibody TRC105; TRC105 Group): Ten NASH mice were intravenously administered vehicle supplemented with Antibody TRC105 at a dose of 10 mg/kg twice weekly at day 63, 66, 70, 73, 77 and 80.
Group 6 (Antibody TRC205; TRC205 Group): Ten NASH mice were intravenously administered vehicle supplemented with Antibody TRC205 at a dose of 10 mg/kg twice weekly at days 63, 66, 70, 73, 77 and 80.
Mice in all groups were terminated for the following assays at 12 weeks of age.
H&E staining of liver tissue was conducted to estimate NAFLD Activity score.
Total NAS score represents the sum of scores for steatosis, lobular inflammation, and ballooning, and ranges from 0-8. Diagnosis of NASH (or, alternatively, fatty liver not diagnostic of NASH) should be made first, then NAS is used to grade activity. In the reference study, NAS scores of 0-2 occurred in cases largely considered not diagnostic of NASH, scores of 3-4 were evenly divided among those considered not diagnostic, borderline, or positive for NASH. Scores of 5-8 occurred in cases that were largely considered diagnostic of NASH.
Statistical tests were performed using Bonferroni Multiple Comparison Test. P values<0.05 were considered statistically significant.

Data set [2] has as its system peripheral blood mononuclear cells (PBMCs). Kind of data set: EpiScreen time course T cell proliferation assay with intact anti-endoglin antibodies. The data set is classed as cell-based, human. Particulars: for Donors with positive T cell proliferation responses: of 20 donors, SI≥2 (borderline ≥1.90), p<0.05. The source says: This example describes a method of screening anti-endoglin antibodies for T-cell epitopes. The interaction between MHC, polypeptide and T cell receptor (TCR) provides the structural basis for the antigen specificity of T cell recognition. T cell proliferation assays test the binding of polypeptides processed from antibodies to MHC and the recognition of MHC/polypeptide complexes by the TCR. In vitro T cell proliferation assays of the present example, involve the stimulation of peripheral blood mononuclear cells (PBMCs), containing antigen presenting cells (APCs) and T cells. Stimulation is conducted in vitro using intact anti-endoglin antibodies. Stimulated T cell proliferation is measured using ^3H-thymidine (^3H-Thy) and the presence of incorporated ^3H-Thymidine is assessed using scintillation counting of washed fixed cells.
Anti-endoglin antibodies were purified from the supernatants of mammalian cultures by protein A chromatography. Buffer exchange and protein concentration was done using PBS pH=7.4. Anti-endoglin antibody was further purified by size exclusion chromatography using a Sephacryl S200 column (GE Healthcare, AMersham, UK). The major peak is collected, filter sterilized and shown to have endotoxin levels <5 EU/mg using an Endosafe-PTS (Charles River, Margate, UK). The purified antibodies are stored at 4 degrees Celsius. Final concentrations were determined by UV absorption using calculated molar extinction coefficients, where A280 1.0=1.62 mg/mL. Each antibody was then diluted to 100 μg/mL in AIMV culture medium.
Peripheral Blood Mononuclear cells (PBMC) are isolated from healthy community donor buffy coats (from blood drawn within 24 hours) which are obtained from the UK National Blood Transfusion Service (Addenbrooke's Hospital, Cambridge, UK) according to approval granted by Addenbrooke's Hospital Local Research Ethics Committee. PBMC are isolated from buffy coats by Lymphoprep (Axis-shield, Dundee, Scotland) density centrifugation and CD8+ T cells are depleted using CD8+ RossetteSep™ (StemCell Technologies, Inc.). Donors are characterized by identifying HLA-DR haplotypes using a Biotest HLA SSP-PCR based tissue-typing kit (Biotest, Landsteinerstralβe, […]). T cell responses to a control antigen, Keyhole Limpet Haemocyanin (KLH) (Pierce, Rockford, Ill., USA) are determined for a positive control. PBMC were then frozen and stored in liquid nitrogen until required. When required for use, cells are thawed rapidly in a water bath at 37° C. before transferring to 10 ml pre-warmed AIM V medium.
A cohort of 20 donors is selected to best represent the number and frequency of HLA-DR allotypes expressed in the world population. […]
PBMCs from each donor are thawed, counted and viability assessed. […]

The target of data set [3] is T1, human endoglin (Homo sapiens, UniProt P17813).
T1 sequence (P17813 26-658): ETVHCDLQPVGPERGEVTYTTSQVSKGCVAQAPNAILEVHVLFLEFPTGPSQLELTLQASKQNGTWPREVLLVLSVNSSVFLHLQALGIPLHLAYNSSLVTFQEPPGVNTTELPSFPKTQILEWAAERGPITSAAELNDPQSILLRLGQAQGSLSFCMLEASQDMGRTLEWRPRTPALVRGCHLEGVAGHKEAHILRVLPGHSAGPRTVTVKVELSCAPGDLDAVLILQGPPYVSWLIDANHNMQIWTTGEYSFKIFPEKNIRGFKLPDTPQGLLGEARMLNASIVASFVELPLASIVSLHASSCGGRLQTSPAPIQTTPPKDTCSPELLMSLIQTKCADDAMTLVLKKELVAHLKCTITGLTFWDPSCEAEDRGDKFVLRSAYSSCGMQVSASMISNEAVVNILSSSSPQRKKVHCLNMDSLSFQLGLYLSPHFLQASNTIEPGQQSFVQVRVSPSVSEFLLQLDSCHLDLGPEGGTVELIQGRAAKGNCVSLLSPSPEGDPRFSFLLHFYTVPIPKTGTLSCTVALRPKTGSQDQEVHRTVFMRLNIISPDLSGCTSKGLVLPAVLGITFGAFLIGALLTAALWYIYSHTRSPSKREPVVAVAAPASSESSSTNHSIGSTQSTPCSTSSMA
The experiment in a line: BIAcore (surface plasmon resonance) analysis of anti-endoglin antibody binding. Particulars: antibody captured on protein A chip, 25 degrees Celsius. The protocol:
Affinity of antibodies can be assessed using, for example, BIAcore analysis using standard protocols. Briefly, protein A is chemically coupled to a BIAcore CM5 chip, with the amount of protein A immobilized corresponding to 2000 RU. Subsequent steps are performed in a running buffer of 10 mM HEPES, 150 mM NaCl, 3 mM EDTA, 0.05% TWEEN, pH=7.4, at 25 degrees Celsius using a 10 Hz data collection rate. Anti-endoglin antibody (10 nM) is captured at a 10 μL/min flow rate by the immobilized protein A on the BIAcore chip: typically, capture times of 20, 40 and 80 seconds allow the capture of antibody densities corresponding to 130 RU, 330 RU and 570 RU, respectively. Start-up cycles are performed using running buffer at a flow rate of 40 μL/min, a contact time of 90 seconds and a dissociation time of 90 seconds. Sample cycles are performed using recombinant endoglin at concentrations ranging from 0 to 40 nM. Endoglin is passed over the BIAcore chip containing captured antibody at a flow rate of 40 μL/min with a contact time of 525 seconds and dissociation time of 2500 seconds. Eight sample cycles are typically performed at each antibody capture density. Regeneration of the chip is accomplished using 10 mM glycine pH=1.7. Data analysis is performed using BIAcore T100 Evaluation Software v1.1 Signals generated using BIAcore chips with different captured antibody densities are compared and data generated in the absence of recombinant endoglin are used to adjust for the intraassay blank signal. For fitting of the data, the Rmax is allowed to float to account for variation in capture levels of each antibody in each cycle. Data from each capture density is fitted simultaneously during analysis of each antibody. BIAcore data are presented in Table 2 for chimeric, humanized and deimmunized anti-endoglin antibodies, including ka (1/Ms), kd (1/s), KD (M) and Chi^2 (RU^2).
Background: In SPR one partner is held on a chip, and binding of the other changes the refractive index at the surface.

[4] abbreviates: liver gene expression, mean ± SD, Normal-Vehicle 1.0.

Consider `CCCc1nc2c(C)cc(-c3nc4ccccc4n3C)cc2n1Cc1ccc(-c2ccccc2C(=O)O)cc1` [Telmisartan, telmisartan, reference compound], for which, in data set [1] (Bonferroni, P<0.05), the “Alpha-smooth muscle actin mRNA expression levels compared with the NASH-Vehicle group” value is “significantly down-regulated”, the “Liver triglyceride contents compared with the NASH-Vehicle group” value is reported as “significant decreases”, the “Macrophage chemoattractant protein-1 mRNA expression levels compared with the NASH-Vehicle group” value was “tended to decrease” and the “Mean liver weight compared with the NASH-Vehicle group” value is “significant decrease”. In data set [1] (Bonferroni, P<0.05), the “Mean liver-to-body weight ratio compared with the NASH-Vehicle group” value is “significant decreases”, the “NAS compared with the NASH-Vehicle group” value is “significant decreases in NAS”, the “Serum alanine aminotransferase (ALT) levels compared with the NASH-Vehicle group” value was “tended to decrease” and the “Sirius red-positive area compared with the NASH-Vehicle group” value was “significant decrease”. Besides, the “F4/80-positive signals and cells in liver compared with the NASH-Vehicle group” value in data set [1] (F4/80 immunostaining, macrophage marker) is on record as “No obvious changes”. In addition, in data set [1] (setting [4]), the “Alpha-SMA mRNA expression” value was determined as 0.7 ± 0.3, the “MCP-1 mRNA expression” value was determined as 1.5 ± 1.1, the “TIMP-1 mRNA expression” value is on record as 5.8 ± 3.7 and the “TNF-α mRNA expression” value is reported as 3.2 ± 2.3. For the same molecule, in data set [1] (mean ± SD), the Liver triglyceride was 23.5 ± 10.6 mg/g liver, the “Serum ALP” value stood at 444 ± 134 U/L, the “Serum ALT” value is reported as 29 ± 15 U/L and the “Serum AST” value came to 113 ± 32 U/L. The Sirius red-positive area in data set [1] (mean ± SD, liver sections) is reported as 0.67 ± 0.12%. Besides, the “NAS (NAFLD Activity score)” value in data set [1] (mean ± SD, range 0-8, 10 mg/kg) is 3.3 ± 1.2. In addition, the “Lobular inflammation score 0, number of mice” value in data set [1] (score 0 = No Foci) is 3. Further, the “Hepatocyte ballooning score 0, number of mice” value in data set [1] (score 0 = None) is 1. For the same molecule, the “Steatosis score 1, number of mice” value in data set [1] (score 1 = 5-33%) amounted to 9. Besides, the “Lobular inflammation score 1, number of mice” value in data set [1] (score 1 = <2 foci/200x) is 4. Besides, in data set [1] (score 1 = Few balloon cells), the “Hepatocyte ballooning score 1, number of mice” value was 3. For the same molecule, the “Lobular inflammation score 2, number of mice” value in data set [1] (score 2 = 2-4 foci/200x) was determined as 2. Moreover, the “Hepatocyte ballooning score 2, number of mice” value in data set [1] (score 2 = Many cells/prominent ballooning) was determined as 5.

B1: VK1VH1: humanized anti-endoglin antibody (antibody, V domains shown)
VH: EVQLVESGGGLVKPGGSLRLSCAASGFTFSDAWMDWVRQAPGKGLEWVGEIRSKASNHATYYAESVKGRFTISRDDSKNTLYLQMNSLKTEDTAVYYCTRWRRFFDSWGQGTLVTVSS
VL: DIQMTQSPSSLSASVGDRVTITCRASSSVSYMHWYQQKPGKAPKPWIYATSNLASGVPSRFSGSGSGTDYTLTISSLQPEDFATYYCQQWSSNPLTFGGGTKVEIK
As for B1, the “Responding donors, % of the study cohort” value in data set [2] (cohort of 20 donors, 50 μg/mL antibody) is 10%. Besides, the “Stimulation index (borderline response)” value in data set [2] (donor 20) came to 1.91. The “Donors with positive T cell proliferation responses” value in data set [2] (50 μg/mL antibody) worked out at 2.

B2: VK1AAVH1R: humanized/deimmunized anti-endoglin antibody (antibody, V domains shown)
VH: B1 VH with K54R
VL: B1 VL with V19A, I47A
In the case of B2, in data set [3], the ka was 64000 M⁻¹ s⁻¹ and the kd turned out to be 3.41e-05 s⁻¹.

B3: VK1AAVH1Q: humanized/deimmunized anti-endoglin antibody (antibody, V domains shown)
VH: B1 VH with K54Q
VL: B1 VL with V19A, I47A
In data set [3], B3 showed a ka of 35600 M⁻¹ s⁻¹ and a kd of 3.03e-05 s⁻¹.

B4: VK1AAVH1A2: humanized/deimmunized anti-endoglin IgG1; light chain SEQ ID NO: 93 (VK1AA), heavy chain SEQ ID NO: 89 (VH1A2) (antibody, V domains shown)
VH: B1 VH with I51A
VL: B1 VL with V19A, I47A
In data set [3], B4 yielded a ka of 46000 M⁻¹ s⁻¹ and a kd of 3.25e-05 s⁻¹. Also, the “Donors with positive T cell proliferation responses” value in data set [2] (50 μg/mL antibody) was “none of the donors in the study cohort responded positively”.
